Experimental data from doi:10.1101/2025.04.23.650324v1 (biorxiv, 2025).
≈ marks a conversion by molar mass, not a printed value.

Key:
Experiment in all cases: microbe, parasite or virus in culture
[1] = tested on: Klebsiella pneumoniae Kp13; conditions: KP13, 18 h, read-out: ENOblock MIC (mg/L)
[2] = tested on: Klebsiella pneumoniae Kp8; conditions: KP8, 18 h, read-out: ENOblock MIC (mg/L)
[3] = tested on: Klebsiella pneumoniae Kp9; conditions: KP9, 18 h, read-out: ENOblock MIC (mg/L)
[4] = tested on: Klebsiella pneumoniae Kp7; conditions: KP7, 18 h, read-out: ENOblock MIC (mg/L)
[5] = tested on: Klebsiella pneumoniae Kp11; conditions: KP11, 18 h, read-out: ENOblock MIC (mg/L)
[6] = tested on: Klebsiella pneumoniae Kp6; conditions: KP6, 18 h, read-out: ENOblock MIC (mg/L)
[7] = tested on: Klebsiella pneumoniae Kp12; conditions: KP12, 18 h, read-out: ENOblock MIC (mg/L)
[8] = tested on: Klebsiella pneumoniae Kp10; conditions: KP10, 18 h, read-out: ENOblock MIC (mg/L)
[9] = tested on: Klebsiella pneumoniae Kp15; conditions: KP15, 18 h, read-out: ENOblock MIC (mg/L)
[10] = tested on: Klebsiella pneumoniae Kp14; conditions: KP14, 18 h, read-out: ENOblock MIC (mg/L)
Escherichia coli CRA8 = conditions: CRA8, 18 h, read-out: ENOblock MIC (mg/L)
Escherichia coli R2 = conditions: R2, 18 h, read-out: ENOblock MIC (mg/L)
Escherichia coli CRA5 = conditions: CRA5, 18 h, read-out: ENOblock MIC (mg/L)
Escherichia coli CRA7 = conditions: CRA7, 18 h, read-out: ENOblock MIC (mg/L)
Escherichia coli R5 = conditions: R5, 18 h, read-out: ENOblock MIC (mg/L)
Escherichia coli CRA32 = conditions: CRA32, 18 h, read-out: ENOblock MIC (mg/L)
Escherichia coli CRA57 = conditions: CRA57, 18 h, read-out: ENOblock MIC (mg/L)
Escherichia coli R6 = conditions: R6, 18 h, read-out: ENOblock MIC (mg/L)
Escherichia coli CRA17 = conditions: CRA17, 18 h, read-out: ENOblock MIC (mg/L)
Escherichia coli CRA20 = conditions: CRA20, 18 h, read-out: ENOblock MIC (mg/L)
[11] = tested on: Acinetobacter baumannii #22; conditions: 18 h, read-out: ENOblock MIC (mg/L)
[12] = tested on: Acinetobacter baumannii #11; conditions: 18 h, read-out: ENOblock MIC (mg/L)
[13] = tested on: Acinetobacter baumannii #21; conditions: 18 h, read-out: ENOblock MIC (mg/L)
[14] = tested on: Acinetobacter baumannii #19; conditions: 18 h, read-out: ENOblock MIC (mg/L)
[15] = tested on: Acinetobacter baumannii #20; conditions: 18 h, read-out: ENOblock MIC (mg/L)
[16] = tested on: Acinetobacter baumannii #17; conditions: 18 h, read-out: ENOblock MIC (mg/L)
[17] = tested on: Acinetobacter baumannii #10; conditions: 18 h, read-out: ENOblock MIC (mg/L)
[18] = tested on: Acinetobacter baumannii #1; conditions: 18 h, read-out: ENOblock MIC (mg/L)
[19] = tested on: Acinetobacter baumannii #14; conditions: 18 h, read-out: ENOblock MIC (mg/L)
[20] = tested on: Acinetobacter baumannii #16; conditions: 18 h, read-out: ENOblock MIC (mg/L)

## NCCOCCOCCNC(=O)Cc1ccc(Nc2nc(NCc3ccc(F)cc3)nc(NCC3CCCCC3)n2)cc1 [ENOblock]
[1]
  MIC: 64 mg/L (≈ 108 µM)
[2]
  MIC: 64 mg/L (≈ 108 µM)
[3]
  MIC: 64 mg/L (≈ 108 µM)
[4]
  MIC: 16 mg/L (≈ 26.9 µM)
[5]
  MIC: 16 mg/L (≈ 26.9 µM)
[6]
  MIC: 32 mg/L (≈ 53.8 µM)
[7]
  MIC: 64 mg/L (≈ 108 µM)
[8]
  MIC: 32 mg/L (≈ 53.8 µM)
[9]
  MIC: 64 mg/L (≈ 108 µM)
[10]
  MIC: 64 mg/L (≈ 108 µM)
Escherichia coli CRA8
  MIC: 16 mg/L (≈ 26.9 µM)
Escherichia coli R2
  MIC: 32 mg/L (≈ 53.8 µM)
Escherichia coli CRA5
  MIC: 16 mg/L (≈ 26.9 µM)
Escherichia coli CRA7
  MIC: 16 mg/L (≈ 26.9 µM)
Escherichia coli R5
  MIC: 32 mg/L (≈ 53.8 µM)
Escherichia coli CRA32
  MIC: 8 mg/L (≈ 13.5 µM)
Escherichia coli CRA57
  MIC: 16 mg/L (≈ 26.9 µM)
Escherichia coli R6
  MIC: 16 mg/L (≈ 26.9 µM)
Escherichia coli CRA17
  MIC: 32 mg/L (≈ 53.8 µM)
Escherichia coli CRA20
  MIC: 32 mg/L (≈ 53.8 µM)
[11]
  MIC: 16 mg/L (≈ 26.9 µM)
[12]
  MIC: 16 mg/L (≈ 26.9 µM)
[13]
  MIC: 8 mg/L (≈ 13.5 µM)
[14]
  MIC: 32 mg/L (≈ 53.8 µM)
[15]
  MIC: 8 mg/L (≈ 13.5 µM)
[16]
  MIC: 16 mg/L (≈ 26.9 µM)
[17]
  MIC: 16 mg/L (≈ 26.9 µM)
[18]
  MIC: 16 mg/L (≈ 26.9 µM)
[19]
  MIC: 16 mg/L (≈ 26.9 µM)
[20]
  MIC: 16 mg/L (≈ 26.9 µM)
